In article PMC11048566, “The Development of a Regulator of Human Serine Racemase for N-Methyl-D-aspartate Function” (Biomedicines, 2024):
One block for each compound: values may come before it.

Legend:
[1] = biological target: T1, human serine racemase (hSR) (Homo sapiens, UniProt Q9GZT4); assay: Two-step enzymatic assay of hSR racemization (hSR, then DAAO/HRP/Amplex Red); format: biochemical; conditions: within the physiological range of ATP concentration
T1 construct: 6xHis (C); made in house; host or cells: E. coli BL21 (pET42b-hSR)
T1 sequence (Q9GZT4 1-340): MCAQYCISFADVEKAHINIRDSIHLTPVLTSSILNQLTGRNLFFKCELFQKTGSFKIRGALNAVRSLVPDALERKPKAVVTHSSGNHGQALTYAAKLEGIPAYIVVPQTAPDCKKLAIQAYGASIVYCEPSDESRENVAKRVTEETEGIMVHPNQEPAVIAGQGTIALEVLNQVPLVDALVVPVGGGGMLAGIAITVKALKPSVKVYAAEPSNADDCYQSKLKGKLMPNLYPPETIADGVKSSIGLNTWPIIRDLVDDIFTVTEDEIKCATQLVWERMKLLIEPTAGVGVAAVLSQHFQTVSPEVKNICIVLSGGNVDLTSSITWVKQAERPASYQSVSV
Description: This assay was designed by the formation of D-serine by hSR and the oxidation of D-serine by D-amino acid oxidase (DAAO) and horseradish peroxidase (HRP) with the peroxidase substrate Amplex Red^TM (10-acetyl-3,7-dihydroxyphenoxazine) (Thermo Fisher Scientific, Lagoas Park, Porto Salvo, Portugal). The hSR activity assay reaction was carried out in 100 mM HEPES buffer, pH 8.0, containing 2.4 µg of hSR protein, 50 µM PLP, 1 mM MgCl2, 0.25 mM ATP, 400 mM L-serine, and 2 times serially diluted α12G (8 mM to 0.2 µM). Compound-free wells were used as blank controls in the assay. All reactions were performed in duplicates. The reaction mixtures were incubated at 37 °C for 4 h. The reaction was stopped by heating the reaction mixtures at 95 °C for 10 min and storage at 4 °C. A reaction mixture for the second-step enzymatic assay, DAAO assay, with a final volume of 100 µL was made with a 10 µL sample from hSR assay, 45 µM FAD, 10 units of HRP, 60 ng DAAO, 10 mM lead acetate, 10 mM Amplex Red^TM, and 100 mM Tris HCl (pH = 8.5). Lead acetate was used to conjugate α12G as the latter would inhibit the DAAO function in the fluorometric assay, leading to an […] of the effects of α12G on hSR. The fluorescence was detected by the TECAN Infinite 200 Microplate Reader (GMI, MN, USA). The racemization percentage was calculated as follows: racemization % = (Fsample, 20 min − Fsample, 0 min)/(Fblank, 20 min − Fblank, 0 min) × 100%. […] The two-step enzymatic assay described in Section 2.3 was designed by the formation of D-serine by hSR and the consequent oxidation of D-serine by DAAO. The inhibition of DAAO, which also degrades D-serine, by α12G will lead to overestimating the effects of racemization by hSR. […] Therefore, lead acetate was applied to conjugate α12G for the determination of racemization. […] On the contrary, when the concentration of α12G is higher than 2 mM, the racemization activity of hSR is inhibited.

hSR = biological target: T2, hSR (Homo sapiens, UniProt Q9GZT4); set-up: method as in PMID 29899358; conditions: 2 mM ATP, cited from earlier work
T2 construct: 6xHis (C); made in house; host or cells: E. coli BL21 (pET42b-hSR)
T2 sequence (Q9GZT4 1-340): T1 sequence (Q9GZT4 1-340)

SR [2] = assay: D-serine and L-serine levels in cerebral cortex and plasma after IV DMM (LC-MS/MS); format: in vivo, C57BL/6J male mice; conditions: 400 mg/kg DMM IV, 30 min after administration, vs vehicle, n = 3
Description: For the determination of DAA concentration, C57BL/6J male mice received 50, 100, 200, and 400 mg/kg DMM (TGI, Tokyo, Japan) IV, and the mice were euthanized 30 min later. Cerebral cortex and plasma samples (n = 3 − 9) were collected and stored at −80 °C until the time of analysis. The brain tissues were weighed and homogenized on ice with 5-fold volumes of 1000 ng/mL tolbutamide (internal standard, IS, Sigma-Aldrich, St. Louis, MO, USA)) in methanol (Merck KGaA, Darmstadt, Germany). The plasma was combined with 4-fold volumes of 1250 ng/mL IS in methanol and vortexed for 2 min. The homogenates were centrifuged at 12,000× g […] for 10 min at 4 °C in an Eppendorf 5417R centrifuge (Eppendorf, Hamburg, Germany). The supernatant was passed through a 0.22 μm filter (Merck KGaA, Darmstadt, Germany) and analyzed by liquid chromatography–tandem mass spectrometry (LC-MS/MS) using the following method: An Agilent 1260 LC quaternary pump with an Agilent 1260 LC infinity autosampler and an Agilent 1100 column oven (Marshall Scientific, Hampton, NH, USA) were used to inject the samples onto an Astec Chirobiotic column (5 μm, 250 × 4.6 mm I.D., Sigma-Aldrich, St. Louis, MO, USA). The mobile phase was a 20/80 mixture of mobile phase A (0.1% formic acid (Sigma-Aldrich, St. Louis, MO, USA) in ddH2O) and mobile phase B (0.1% formic acid in acetonitrile), and the run was isocratic at a flow rate of 0.3 mL/min. Quantitation was achieved by MS/MS detection in positive ion multiple reaction monitoring (MRM) mode for analyte and IS using an AB SCIEX 3200 triple quadrupole ion trap mass spectrometer (AB Sciex, Framingham, MA, USA). The parameters for curtain gas, ion spray voltage, temperature, ion source gas 1, and ion source gas 2 were 10 psi, 5000 V, 550 °C, 35 psi, and 30 psi, respectively. AB SCIEX Analyst® (version 1.6.3, AB Sciex, Framingham, MA, USA) software was used for system control and data processing. To investigate the regulation of racemization by hSR, we applied DMM, the pro-drug of malonate, to C57BL/6J male mice. The mice were euthanized 30 min after the administration. The cerebral cortex and plasma were harvested and analyzed by LC-MS/MS to quantify D-serine and L-serine levels after the treatment with DMM (Figure 1). […] L-serine levels were also raised in the cerebral cortex 1.44 times (p < 0.001; n = 3; Student’s t-test) and in plasma 1.55 times (p < 0.05; n = 3; Student’s t-test).

SR [3] = conditions: two-step enzymatic assay; read-out: IC50 of SR inhibition; cited from earlier work
[4] = biological target: D-amino acid oxidase (DAAO) (Homo sapiens, UniProt P14920); assay: DAAO enzymatic assay; format: biochemical
Description: A reaction mixture for the DAAO assay, with a final volume of 100 µL was made with 1 µL 2 times serially diluted α12G (4 µM to 7.8 nM), 45 µM FAD, 10 units of HRP, 60 ng DAAO, 10 mM Amplex Red^TM, 5 mM D-serine, and 100 mM Tris HCl (pH = 8.5). All reactions were performed in duplicates. The fluorescence was detected by a fluorometric meter (TECAN Infinite 200). The racemization percentage was calculated as follows: activity % = (Fsample, 20 min − Fsample, 0 min)/(Fblank, 20 min − Fblank, 0 min) × 100%.

ATP concentration that promotes the most racemization by hSR [1]: 0.25 mM
Structure (SMILES): Nc1ncnc2c1ncn2[C@@H]1O[C@H](COP(=O)(O)OP(=O)(O)OP(=O)(O)O)[C@@H](O)[C@H]1O [ATP]
Increase in enzyme activation, L-serine dehydration (kcat/KM 8.1 to 253 s^−1 M^−1) (hSR; 200 mM L-serine, 37 °C): 31 fold
Enhancement of D-serine dehydration (kcat/KM 0.6 to 2.4 s^−1 M^−1) (hSR): 4 fold
Enhancement of L-serine racemization (kcat/KM 9.2 to 17.5 s^−1 M^−1) (hSR): 1.9 fold

Structure (SMILES): COC(=O)CC(=O)OC [DMM, dimethyl malonate]
D-serine level in plasma, raised (SR [2]): 1.75 times
D-serine level in the cerebral cortex, raised (SR [2]): 1.43 times
L-serine level in plasma, raised (SR [2]): 1.55 times
L-serine level in the cerebral cortex, raised (SR [2]): 1.44 times

Effect on DAAO [4]: has an inhibitory effect on DAAO
Structure (SMILES): Nc1ccccc1N1CCOCC1 [x-0458, 2-morpholinoaniline, reference compound]
IC50 (SR [3]): 10.6 µM
